Experimental data published in patent publication USRE46943E1, “Radioprotector compounds and methods” (PETER MACCALLUM CANCER INSTITUTE, priority 2010, dated 2018).

How the values were obtained:
[1] = tested on: mouse jejunum crypt clonogens; assay: Radioprotection of mouse jejunum by intravenous 2PH (surviving crypt clonogens); assay type: in vivo, C3H/HeJ mice
Method: C3H/HeJ mice were administered 2PH by intravenous (tail vein) injection (30 mM solution in acetate-buffered saline, pH5; 150 mg/kg) 2 hours prior to whole body irradiation (up to 19 Gy) with ^137Cs γ-rays (GammaCell 40 Irradiator, Nordion International Inc., Canada) at a dose rate of 0.73 Gy/min, in groups of 5. The mice were euthanised 3 days 14 hours post-irradiation and the jejunum excised. Five 1 cm jejunum sections were taken from each mouse and bundled with micropore tape before being fixed in neutral buffered formalin. Samples are then paraffin embedded, sectioned and stained with Hematoxylin-Eosin. The densely stained colonies (>10 cells) arising from proliferation of surviving crypt clonogens were counted and scored on the basis of colonies per circumference.
The data for each of the two experimental groups was fitted to the expression: N(D)=N0(1−e^−Se^−αD) Where: • N0 is the initial number of clonogens per circumference, • N(D) the number of surviving clonogens per circumference after a radiation dose of D Gy, • S is the number of clonogens per crypt, and • α is the reciprocal of radiation dose corresponding to a lethal event.

mice = assay: Radioprotection of mouse jejunum, subcutaneous administration: local reaction at injection site; assay type: in vivo
Method: 2-Hydroxypropyl-β-cyclodextrin (HPCD, Sigma-Aldrich, typical MW 1540) vehicle solution was prepared by dissolving 3.6 g of HPCD in 9.3 mL of phosphate buffered saline (PBS) resulting in 30% v/w solution. […] The concentration of M2PB was measured following appropriate dilution in 45% MeOH 0.1% TFA using an extinction coefficient […] at 345 nm. The M2PB/HPCD stock was diluted to 8.75 mg/mL (22 mM) in HPCD vehicle to produce the final M2PB/HPCD formulation, which was injected subcutaneously into mice, between the shoulder blades (scruff of the neck) at a volume of 8×10^−3 ml/g body weight.
The subsequent irradiation and analysis was as described for Example 56.

[2] = subcutaneous solutions in polyethylene glycol (MW 400), similar experiments with the jejunum model

SMILES	α (reciprocal of radiation dose corresponding to a lethal event), derived by curve-fitting ([1]; 150 mg/kg intravenous 2 hours prior to whole body irradiation, control 0.529+/−0.048)	dose modification factor ([1]; 150 mg/kg intravenous, from α control and α 2PH)	local reaction or toxicity at the site of subcutaneous injection (mice; [2])	local reaction or toxicity at the site of subcutaneous injection (mice; M2PB/HPCD formulation (complex with 2-hydroxypropyl-β-cyclodextrin), 8.75 mg/mL subcutaneous)
CN1CCN(c2ccc3nc(-c4ccc5nc(-c6ccccn6)[nH]c5c4)[nH]c3c2)CC1 [Example 2, 2-(5′-(5″-(4′″-Methylpiperazin-1′″-yl)benzimidazol-2″-yl)benzimidazol-2′-yl)pyridine]	0.431+/−0.039 Gy−1	1.23+/−0.15	had been observed	
c1ccc(-c2nc3ccc(-c4nc5ccc(N6CCOCC6)cc5[nH]4)cc3[nH]2)nc1 [Example 19, 2-(5′-(5″-Morpholinobenzimidazol-2″-yl)benzimidazol-2′-yl)pyridine]			had been observed	no indication of local reaction or toxicity
